Among the data in ChEMBL document CHEMBL1133492, “Design, synthesis, and biological evaluation of fluoronitrophenyl substituted folate analogues as potential inhibitors of GAR transformylase and AICAR transformylase” (Bioorg Med Chem Lett, 2000) are inhibition values, retold here.

Molecules are shown by their SMILES.

In the assay the target is Phosphoribosylglycinamide formyltransferase (Escherichia coli) (UniProt P08179). The experiment in a line: In vitro inhibitory activity against Glycinamide ribonucleotide transformylase (GAR Tfase) following 30 min pre-incubation at 250 uM concentration.
Sequence of Phosphoribosylglycinamide formyltransferase (Escherichia coli) (P08179 whole entry, looked up): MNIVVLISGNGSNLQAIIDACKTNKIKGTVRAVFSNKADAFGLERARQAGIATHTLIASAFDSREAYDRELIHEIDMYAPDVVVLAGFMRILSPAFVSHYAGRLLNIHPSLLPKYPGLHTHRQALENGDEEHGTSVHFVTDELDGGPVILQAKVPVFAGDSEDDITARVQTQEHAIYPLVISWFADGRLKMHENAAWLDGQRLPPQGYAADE
For `COC(=O)c1ccc(CN(CCCc2c(N)nc(N)nc2O)c2cc(F)cc(F)c2[N+](=O)[O-])cc1`, the inhibition was 5%.

The compound `COC(=O)c1ccc(CN(CCc2c(N)nc(N)nc2O)c2cc(F)c(F)cc2[N+](=O)[O-])cc1` yielded an inhibition of 3%.

Compound `COC(=O)c1ccc(CN(CCc2c(N)nc(N)nc2O)c2cc(F)ccc2[N+](=O)[O-])cc1` showed an inhibition of 43%.

As to `COC(=O)c1ccc(CN(CCc2c(N)nc(N)nc2O)c2cc(F)c([N+](=O)[O-])cc2[N+](=O)[O-])cc1`, the inhibition was 24%.

Regarding `COC(=O)c1ccc(CN(CCCc2c(N)nc(N)nc2O)c2ccc([N+](=O)[O-])c(F)c2F)cc1`, the inhibition stood at 57%.

Compound `COC(=O)c1ccc(CN(CCCc2c(N)nc(N)nc2O)c2cc(F)c([N+](=O)[O-])cc2[N+](=O)[O-])cc1` registered an inhibition of 9%.

The compound `Nc1nc(N)c(CCCNc2cc(F)ccc2[N+](=O)[O-])c(O)n1` yielded an inhibition of 69%.

With `Nc1nc(N)c(CCCNc2cc(F)c([N+](=O)[O-])cc2[N+](=O)[O-])c(O)n1`, the inhibition turned out to be 73%.

For `COC(=O)c1ccc(CN(CCCc2c(N)nc(N)nc2O)c2cc(F)c(F)cc2[N+](=O)[O-])cc1`, the inhibition was 33%.

`Nc1nc(N)c(CCCNc2cc(F)c(F)cc2[N+](=O)[O-])c(O)n1` returned an inhibition of 82%.

`COC(=O)c1ccc(CN(CCc2c(N)nc(N)nc2O)c2ccc([N+](=O)[O-])c(F)c2F)cc1` gave an inhibition of 60%.

In the case of `Nc1nc(N)c(CCCNc2cc(F)cc(F)c2[N+](=O)[O-])c(O)n1`, the inhibition was determined as 70%.

As to `COC(=O)c1ccc(CN(CCCc2c(N)nc(N)nc2O)c2cc(F)ccc2[N+](=O)[O-])cc1`, the inhibition amounted to 41%.

In turn, `COC(=O)c1ccc(CN(CCc2c(N)nc(N)nc2O)c2cc(F)cc(F)c2[N+](=O)[O-])cc1` returned an inhibition of 9%.
